{"source": "patent US11987588B2", "about": "“Modulators of the beta-3 adrenergic receptor useful for the treatment or prevention of heart failure and disorders related thereto” (Arena Pharmaceuticals, Inc., priority 2017, dated 2024)", "data": [{"molecular_target": "Beta-3 Adrenergic Receptor (Homo sapiens (Human), UniProt P13945)", "sequence (P13945 whole entry, species assumed)": "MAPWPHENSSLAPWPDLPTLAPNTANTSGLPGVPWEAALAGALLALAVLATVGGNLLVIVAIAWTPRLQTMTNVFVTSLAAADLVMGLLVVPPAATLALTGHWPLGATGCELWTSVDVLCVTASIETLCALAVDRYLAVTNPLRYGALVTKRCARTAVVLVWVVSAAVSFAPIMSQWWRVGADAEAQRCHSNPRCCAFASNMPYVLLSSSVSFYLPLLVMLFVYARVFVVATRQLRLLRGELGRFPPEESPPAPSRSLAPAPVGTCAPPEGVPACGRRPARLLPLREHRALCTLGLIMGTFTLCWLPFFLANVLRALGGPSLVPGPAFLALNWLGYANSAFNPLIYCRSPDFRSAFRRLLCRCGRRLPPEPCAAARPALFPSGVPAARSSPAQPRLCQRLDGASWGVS", "experiment": "Homogeneous Time-Resolved Fluorescence (HTRF) cAMP antagonist assay, IC50 determination", "assay_type": "cell-based", "conditions": "CHO-K1 cells stably expressing recombinant receptor, isoproterenol at EC90", "how_it_was_run": "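In this functional readout, recombinant CHO-K1 cells received compound, then isoproterenol at its EC90. After 1 h at room temperature, cAMP levels were determined by HTRF using an on-plate standard curve, and IC50 values were fitted.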", "units": {"IC50": "nM"}, "values": [{"smiles": "CNS(=O)(=O)c1cccc(OC[C@@H](O)CN[C@@H]2COC3(CCN(S(=O)(=O)c4cc(C)ccc4F)CC3)C2)c1", "note": "[Compound 268, 3-((S)-3-((S)-8-(2-fluoro-5-methylphenylsulfonyl)-1-oxa-8-azaspiro[4.5]decan-3-ylamino)-2-hydroxypropoxy)-N-methylbenzenesulfonamide]", "IC50": 12.3}, {"smiles": "CNS(=O)(=O)c1cccc(OC[C@@H](O)CNC2COC3(CCN(S(=O)(=O)c4cccc(-c5nn[nH]n5)c4)CC3)C2)c1", "note": "(stereo partly drawn) [Compound 409, 3-((2S)-3-(8-(3-(2H-tetrazol-5-yl)phenylsulfonyl)-1-oxa-8-azaspiro[4.5]decan-3-ylamino)-2-hydroxypropoxy)-N-methylbenzenesulfonamide]", "IC50": 180}, {"smiles": "CNS(=O)(=O)c1cccc(OC[C@@H](O)CNC2COC3(CCN(S(=O)(=O)c4ccc(C)c(C#N)c4)CC3)C2)c1", "note": "(stereo partly drawn) [Compound 198, 3-((2S)-3-(8-(3-cyano-4-methylphenylsulfonyl)-1-oxa-8-azaspiro[4.5]decan-3-ylamino)-2-hydroxypropoxy)-N-methylbenzenesulfonamide]", "IC50": 8.65}, {"smiles": "CNS(=O)(=O)c1cccc(OC[C@@H](O)CNC2COC3(CCN(S(=O)(=O)c4cccc(-c5ccc(-c6noc(C)n6)cc5)c4)CC3)C2)c1", "note": "(stereo partly drawn) [Compound 380, 3-((2S)-2-hydroxy-3-(8-(4′-(5-methyl-1,2,4-oxadiazol-3-yl)biphenyl-3-ylsulfonyl)-1-oxa-8-azaspiro[4.5]decan-3-ylamino)propoxy)-N-methylbenzenesulfonamide]", "IC50": 102}, {"smiles": "CN1CCOc2ccc(S(=O)(=O)N3CCC4(CC3)CC(NC[C@H](O)COc3cccc(S(=O)(=O)N(C)C)c3)CO4)cc21", "note": "(stereo partly drawn) [Compound 256, 3-((2S)-2-hydroxy-3-(8-(4-methyl-3,4-dihydro-2H-benzo[b][1,4]oxazin-6-ylsulfonyl)-1-oxa-8-azaspiro[4.5]decan-3-ylamino)propoxy)-N,N-dimethylbenzenesulfonamide]", "IC50": 21.1}, {"smiles": "CCOc1ccc(-c2ccc(CN)cc2)cc1S(=O)(=O)N1CCC2(CC1)C[C@H](NC[C@H](O)COc1cccc(S(=O)(=O)NC)c1)CO2", "note": "[Compound 419, 3-((S)-3-((S)-8-(4′-(aminomethyl)-4-ethoxybiphenyl-3-ylsulfonyl)-1-oxa-8-azaspiro[4.5]decan-3-ylamino)-2-hydroxypropoxy)-N-methylbenzenesulfonamide]", "IC50": 9.69}, {"smiles": "CNS(=O)(=O)c1cccc(OC[C@@H](O)CNC2COC3(CCN(S(=O)(=O)c4cccc(-c5ccc(CN)cc5)c4)CC3)C2)c1", "note": "(stereo partly drawn) [Compound 79, 3-((2S)-3-(8-(4′-(aminomethyl)biphenyl-3-ylsulfonyl)-1-oxa-8-azaspiro[4.5]decan-3-ylamino)-2-hydroxypropoxy)-N-methylbenzenesulfonamide]", "IC50": 7.15}, {"smiles": "CNS(=O)(=O)c1cccc(OC[C@@H](O)CNC2COC3(CCN(S(=O)(=O)c4c(C)noc4C)CC3)C2)c1", "note": "(stereo partly drawn) [Compound 188, 3-((2S)-3-(8-(3,5-dimethylisoxazol-4-ylsulfonyl)-1-oxa-8-azaspiro[4.5]decan-3-ylamino)-2-hydroxypropoxy)-N-methylbenzenesulfonamide]", "IC50": 18.1}, {"smiles": "CNS(=O)(=O)c1cccc(OC[C@@H](O)CN[C@H]2COC3(CCN(S(=O)(=O)c4cccc(-c5cccnc5)c4)CC3)C2)c1", "note": "[Compound 285, 3-((S)-2-hydroxy-3-((R)-8-(3-(pyridin-3-yl)phenylsulfonyl)-1-oxa-8-azaspiro[4.5]decan-3-ylamino)propoxy)-N-methylbenzenesulfonamide]", "IC50": 25}, {"smiles": "CNS(=O)(=O)c1cccc(OC[C@@H](O)CNC2COC3(CCN(S(=O)(=O)c4cccc(-c5ccc(CNCC(F)F)cc5)c4)CC3)C2)c1", "note": "(stereo partly drawn) [Compound 339, 3-((2S)-3-(8-(4′-((2,2-difluoroethylamino)methyl)biphenyl-3-ylsulfonyl)-1-oxa-8-azaspiro[4.5]decan-3-ylamino)-2-hydroxypropoxy)-N-methylbenzenesulfonamide]", "IC50": 42.4}, {"smiles": "CNS(=O)(=O)c1cccc(OC[C@@H](O)CN[C@@H]2COC3(CCN(S(=O)(=O)c4cccc(-c5ccc(OCC#N)cc5)c4)CC3)C2)c1", "note": "[Compound 297, 3-((S)-3-((S)-8-(4′-(cyanomethoxy)biphenyl-3-ylsulfonyl)-1-oxa-8-azaspiro[4.5]decan-3-ylamino)-2-hydroxypropoxy)-N-methylbenzenesulfonamide]", "IC50": 15.9}, {"smiles": "CCOc1ccc(S(=O)(=O)N2CCC3(CC2)CC(NC[C@H](O)COc2cccc(S(=O)(=O)NC)c2)CO3)cn1", "note": "(stereo partly drawn) [Compound 445, 3-((2S)-3-(8-(6-ethoxypyridin-3-ylsulfonyl)-1-oxa-8-azaspiro[4.5]decan-3-ylamino)-2-hydroxypropoxy)-N-methylbenzenesulfonamide]", "IC50": 30.4}, {"smiles": "CNS(=O)(=O)c1cccc(OC[C@@H](O)CNC2COC3(CCN(S(=O)(=O)c4ccc(S(C)(=O)=O)cc4)CC3)C2)c1", "note": "(stereo partly drawn) [Compound 37, 3-((2S)-2-hydroxy-3-(8-(4-(methylsulfonyl)phenylsulfonyl)-1-oxa-8-azaspiro[4.5]decan-3-ylamino)propoxy)-N-methylbenzenesulfonamide]", "IC50": 49.3}, {"smiles": "CNS(=O)(=O)c1cccc(OC[C@@H](O)CNC2COC3(CCN(S(=O)(=O)c4cncc(-c5cnn(C)c5)c4)CC3)C2)c1", "note": "(stereo partly drawn) [Compound 342, 3-((2S)-2-hydroxy-3-(8-(5-(1-methyl-1H-pyrazol-4-yl)pyridin-3-ylsulfonyl)-1-oxa-8-azaspiro[4.5]decan-3-ylamino)propoxy)-N-methylbenzenesulfonamide]", "IC50": 42.6}, {"smiles": "CNS(=O)(=O)c1cccc(OC[C@@H](O)CN[C@H]2COC3(CCN(S(=O)(=O)c4cnc5c(c4)CCCO5)CC3)C2)c1", "note": "[Compound 483, 3-((S)-3-((R)-8-(3,4-dihydro-2H-pyrano[2,3-b]pyridin-6-ylsulfonyl)-1-oxa-8-azaspiro[4.5]decan-3-ylamino)-2-hydroxypropoxy)-N-methylbenzenesulfonamide]", "IC50": 41.8}, {"smiles": "CCNS(=O)(=O)c1cccc(OC[C@@H](O)CNC2COC3(CCN(S(=O)(=O)c4ccc(-c5ccccc5)s4)CC3)C2)c1", "note": "(stereo partly drawn) [Compound 233, N-ethyl-3-((2S)-2-hydroxy-3-(8-(5-phenylthiophen-2-ylsulfonyl)-1-oxa-8-azaspiro[4.5]decan-3-ylamino)propoxy)benzenesulfonamide]", "IC50": 156}, {"smiles": "CN(C)S(=O)(=O)c1cccc(OC[C@@H](O)CNC2COC3(CCN(S(=O)(=O)c4ccc5nsnc5c4)CC3)C2)c1", "note": "(stereo partly drawn) [Compound 251, 3-((2S)-3-(8-(benzo[c][1,2,5]thiadiazol-5-ylsulfonyl)-1-oxa-8-azaspiro[4.5]decan-3-ylamino)-2-hydroxypropoxy)-N,N-dimethylbenzenesulfonamide]", "IC50": 32.9}, {"smiles": "CNS(=O)(=O)c1cccc(OC[C@@H](O)CN[C@H]2COC3(CCN(S(=O)(=O)c4cnc5c(c4)ncn5C)CC3)C2)c1", "note": "[Compound 475, 3-((S)-2-hydroxy-3-((R)-8-(3-methyl-3H-imidazo[4,5-b]pyridin-6-ylsulfonyl)-1-oxa-8-azaspiro[4.5]decan-3-ylamino)propoxy)-N-methylbenzenesulfonamide]", "IC50": 33.2}, {"smiles": "CNS(=O)(=O)c1cccc(OC[C@@H](O)CN[C@H]2COC3(CCN(S(=O)(=O)c4cnc5c(c4)CC(=O)N5)CC3)C2)c1", "note": "[Compound 514, 3-((S)-2-hydroxy-3-((R)-8-(2-oxo-2,3-dihydro-1H-pyrrolo[2,3-b]pyridin-5-ylsulfonyl)-1-oxa-8-azaspiro[4.5]decan-3-ylamino)propoxy)-N-methylbenzenesulfonamide]", "IC50": 176}, {"smiles": "CNS(=O)(=O)c1cccc(OC[C@@H](O)CN[C@@H]2COC3(CCN(S(=O)(=O)c4cccc(-c5ccc(CNCC(C)C)cc5)c4)CC3)C2)c1", "note": "[Compound 360, 3-((S)-2-hydroxy-3-((S)-8-(4′-((isobutylamino)methyl)biphenyl-3-ylsulfonyl)-1-oxa-8-azaspiro[4.5]decan-3-ylamino)propoxy)-N-methylbenzenesulfonamide]", "IC50": 20.5}, {"smiles": "CNS(=O)(=O)c1cccc(OC[C@@H](O)CNC2COC3(CCN(S(=O)(=O)c4cc(C)ccc4OC)CC3)C2)c1", "note": "(stereo partly drawn) [Compound 176, 3-((2S)-2-hydroxy-3-(8-(2-methoxy-5-methylphenylsulfonyl)-1-oxa-8-azaspiro[4.5]decan-3-ylamino)propoxy)-N-methylbenzenesulfonamide]", "IC50": 23.3}, {"smiles": "CNS(=O)(=O)c1cccc(OC[C@@H](O)CN[C@@H]2COC3(CCN(S(=O)(=O)c4cccc5nsnc45)CC3)C2)c1", "note": "[Compound 244, 3-((S)-3-((S)-8-(benzo[c][1,2,5]thiadiazol-4-ylsulfonyl)-1-oxa-8-azaspiro[4.5]decan-3-ylamino)-2-hydroxypropoxy)-N-methylbenzenesulfonamide]", "IC50": 76.1}, {"smiles": "CN(C)CCCNS(=O)(=O)c1cccc(OC[C@@H](O)CNC2COC3(CCN(S(=O)(=O)c4ccc5c(c4)NC(=O)CO5)CC3)C2)c1", "note": "(stereo partly drawn) [Compound 311, N-(3-(dimethylamino)propyl)-3-((2S)-2-hydroxy-3-(8-(3-oxo-3,4-dihydro-2H-benzo[b][1,4]oxazin-6-ylsulfonyl)-1-oxa-8-azaspiro[4.5]decan-3-ylamino)propoxy)benzenesulfonamide]", "IC50": 2000}, {"smiles": "CNCc1ccc(-c2cccc(S(=O)(=O)N3CCC4(CC3)CC(NC[C@H](O)COc3cccc(S(=O)(=O)NC)c3)CO4)c2)cc1", "note": "(stereo partly drawn) [Compound 301, 3-((2S)-2-hydroxy-3-(8-(4′-((methylamino)methyl)biphenyl-3-ylsulfonyl)-1-oxa-8-azaspiro[4.5]decan-3-ylamino)propoxy)-N-methylbenzenesulfonamide]", "IC50": 31.6}, {"smiles": "CCCc1cnc(N2CCC3(CC2)C[C@@H](NC[C@H](O)COc2cccc(S(=O)(=O)NC)c2)CO3)nc1", "note": "[Compound 579, 3-((S)-2-hydroxy-3-((R)-8-(5-propylpyrimidin-2-yl)-1-oxa-8-azaspiro[4.5]decan-3-ylamino)propoxy)-N-methylbenzenesulfonamide]", "IC50": 340}, {"smiles": "CNS(=O)(=O)c1cccc(OC[C@@H](O)CNC2COC3(CCN(S(=O)(=O)c4cccc(F)c4)CC3)C2)c1", "note": "(stereo partly drawn) [Compound 28, 3-((2S)-3-(8-(3-fluorophenylsulfonyl)-1-oxa-8-azaspiro[4.5]decan-3-ylamino)-2-hydroxypropoxy)-N-methylbenzenesulfonamide]", "IC50": 16.2}]}]}
